Patent US7192981B2, “3,4-dihydroxyhydrocinnamic acid derivative” (Bionutrigen Co., Ltd., priority 2005, dated 2007)

Tests used:
[1] = system: isolated rat epididymal adipocytes; experiment: Glucose transport assay (2-DOG uptake); format: cell-based
GLUT4 = GLUT4 translocation, subcellular fractionation and western blot; format: cell-based, rat; conditions: 500 μM, 4 h, vs untreated control adipocytes
Description: Adipocytes treated with DHH105 for 4 h or insulin for 30 min were washed three times with HES buffer [8 mM HEPES, 250 mM sucrose, 2 mM EDTA, 20 mM NaF, 50 mM NaVO4, 50 mM sodium pyrophosphate, protease inhibitor cocktail (Sigma), and phosphatase inhibitor cocktail (Sigma), pH 7.4]. Adipocytes were homogenized in 20 ml HES buffer with a potter Elvehjem teflon pestle (15 strokes). Homogenates were centrifuged at 1000 g for 10 min and the supernatant was centrifuged again at 16,000 g for 20 min. The resulting pellet was resuspended in 500 μl HES buffer, carefully laid on a discontinuous sucrose gradient (density top to bottom: 1.0592, 1.1270, 1.1533, 1.1764, 1.2575) and centrifuged at 110,000 g for 70 min. The plasma membrane fraction was obtained from the gradient density of 1.1533, diluted in 50 ml HES buffer, and centrifuged at 16,000 g for 20 min. The pellet (plasma membrane fraction) was resuspended in 500 μl HES buffer and stored at −70° C. To obtain the microsomal membrane fraction, the supernatant from the second centrifugation was centrifuged at 220,000 g for 70 min. The pellet was washed, resuspended in 500 μl HES buffer and stored at −70° C. The protein content of each fraction was measured by the Bradford method. […] The membranes were washed and the immunoreactive proteins were detected with an enhanced chemoluminescence western blot detection kit (Amersham Pharmacia Biotech).

IR-β = target: T1, IR-β (Rattus norvegicus, UniProt P15127); experiment: Phosphorylation of IR-β in adipocytes, immunoprecipitation and western blot; format: cell-based; conditions: SD rat adipocytes, DHH105 2 h, vs untreated control
T1 construct: DHH105-treated adipocytes from SD rats; endogenous in cells; host or cells: adipocytes from SD rats
T1 sequence (P15127 764-1383 limits assumed): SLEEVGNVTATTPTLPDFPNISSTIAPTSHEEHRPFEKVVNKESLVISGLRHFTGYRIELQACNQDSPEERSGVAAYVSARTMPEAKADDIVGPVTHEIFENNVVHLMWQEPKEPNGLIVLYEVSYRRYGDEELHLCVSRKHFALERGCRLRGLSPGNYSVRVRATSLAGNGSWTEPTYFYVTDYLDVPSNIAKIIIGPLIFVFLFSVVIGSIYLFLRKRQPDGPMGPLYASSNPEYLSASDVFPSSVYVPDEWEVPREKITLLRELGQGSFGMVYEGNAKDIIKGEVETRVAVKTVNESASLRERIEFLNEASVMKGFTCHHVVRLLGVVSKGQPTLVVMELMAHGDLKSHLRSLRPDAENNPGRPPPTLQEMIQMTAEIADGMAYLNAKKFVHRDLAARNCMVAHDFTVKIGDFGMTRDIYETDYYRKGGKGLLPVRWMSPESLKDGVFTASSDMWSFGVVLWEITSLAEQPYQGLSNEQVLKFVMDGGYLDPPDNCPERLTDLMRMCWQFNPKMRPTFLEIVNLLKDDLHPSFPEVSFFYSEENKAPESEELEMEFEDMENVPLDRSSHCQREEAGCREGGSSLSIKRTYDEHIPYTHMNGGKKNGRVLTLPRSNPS
T1 sequence (P15127 27-759 limits assumed): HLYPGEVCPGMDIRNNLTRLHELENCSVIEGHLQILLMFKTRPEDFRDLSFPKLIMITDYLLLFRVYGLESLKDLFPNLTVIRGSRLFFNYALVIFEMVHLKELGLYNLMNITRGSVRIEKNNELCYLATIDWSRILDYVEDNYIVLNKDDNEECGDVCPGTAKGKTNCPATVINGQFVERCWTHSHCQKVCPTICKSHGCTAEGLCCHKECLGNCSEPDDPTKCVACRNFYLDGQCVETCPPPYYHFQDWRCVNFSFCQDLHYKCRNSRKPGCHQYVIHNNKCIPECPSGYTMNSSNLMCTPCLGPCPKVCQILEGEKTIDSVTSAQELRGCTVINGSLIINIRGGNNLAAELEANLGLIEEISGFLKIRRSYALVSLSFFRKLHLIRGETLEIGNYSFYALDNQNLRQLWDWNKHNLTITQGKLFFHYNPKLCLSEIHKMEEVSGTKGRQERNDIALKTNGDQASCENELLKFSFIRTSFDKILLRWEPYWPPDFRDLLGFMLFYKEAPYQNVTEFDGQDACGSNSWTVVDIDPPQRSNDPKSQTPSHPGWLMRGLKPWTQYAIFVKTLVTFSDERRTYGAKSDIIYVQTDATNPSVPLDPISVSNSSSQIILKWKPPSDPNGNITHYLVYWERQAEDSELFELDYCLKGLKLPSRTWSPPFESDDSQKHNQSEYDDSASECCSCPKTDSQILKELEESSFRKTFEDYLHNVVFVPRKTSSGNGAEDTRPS
Description: Adipocytes treated with DHH105 for 2 h or insulin for 10 min were homogenized in 5 ml lysis buffer (20 mM Tris, pH 7.4, 1% SDS, 10% glycerol, 150 mM NaCl, 2 mM EDTA, 20 mM NaF, 1 mM NaVO4, 2 mM sodium pyrophosphate, protease inhibitor cocktail, and phosphatase inhibitor cocktail) with a teflon pestle (15 strokes). Homogenized adipocytes were sonicated for 3 min and solubilized for 30 min. The homogenate was centrifuged at 3,000 g for 10 min at 4° C. The protein concentration of the lysate was determined by the Bradford method. After dilution (1 μg/μl protein concentration), the lysates were incubated with anti-insulin receptor-β (IR-β) antibody (Upstate Biotech, Charlottesville, Va.) or anti-IRS-1 antibody (Upstate Biotech) overnight at 4° C. Protein A Sepharose beads (100 μl, Amersham Pharmacia Biotech) were added and the mixture was gently rocked for 2 h at 4° C. […] The membranes were washed and the immunoreactive proteins were detected with an enhanced chemoluminescence western blot detection kit (Amersham Pharmacia Biotech). To examine whether DHH105 treatment increases autophosphorylation of the insulin receptor and its tyrosine kinase activity, the phosphorylation of IR-β and IRS-1 were measured by immunoprecipitation and western blot in DHH105-treated adipocytes from SD rats. […]

PI3-kinase = PI3-kinase assay in adipocyte lysate; format: cell-based, rat; conditions: adipocytes, 500 μM, 2 h
Description: Phosphatidylinositide (PI) in DMSO (1 mg/ml) was mixed with an equal volume of buffer A (10 mM HEPES, 100 mM NaCl, 1 mM EGTA, 0.03% NP-40, pH 7.0) and then 10 μl was mixed with an equal volume of buffer B (500 μM [γ-^32P] ATP (10 μCi; Amersham Pharmacia Biotech), 25 mM MgCl2, 15 mM 2-(N-morpholine)ethansulfonic acid, pH 6.8). This mixture was added to 30 μl of adipocyte lysate and incubated for 5 min at room temperature. The kinase reaction was stopped by adding 80 μl of 1 N HCl. A mixture of chloroform and ethanol (1:1, 160 μl) was added to the reaction mixture followed by centrifugation at full speed in a microcentrifuge for 2 min, and 40 μl of the organic phase was extracted. The organic phase was spotted on aluminum-backed silica gel 60 thin layer chromatography (TLC) plates that were pre-soaked in developing solvent (chloroform:methanol:2.2 M NH4OH, 9:7:2), run for 3 h in a TLC chamber with the developing solvent, and air-dried. The amount of phosphoinositides was detected by autoradiography.
In FIG. 7A, the intensity of the PIP3 band was normalized with that of PI, and the relative amount of PIP3 was calculated by (normalized band intensity of sample)/(normalized band intensity of control) (lower panel). Data are means±SEM of three independent experiments.

[2] = 500 μM, 4 h, 2-DOG 0.125 to 10.0 mM, Lineweaver-Burk

## O=C(CCc1ccc(O)c(O)c1)OCc1cccc2ccccc12 [DHH105, 3,4-dihydroxyhydrocinnamic acid naphthalene methyl ester]
[1]; 500 μM DHH105 3.5 h, then insulin 30 min
  effect on insulin-stimulated glucose transport: did not influence
[1]; 500 μM, 4 h
  Km value, DHH105-treated vs control adipocytes: no difference
[1]; [2]
  Km: 1780 ± 380 µM
  Vmax of glucose transport: 17.14±0.25 mmol/3 min
[1]; 500 μM, 4 h, Lineweaver-Burk
  Vmax of glucose transport relative to untreated control adipocytes: 3 fold
[1]; rat adipocytes, 500 μM
  incubation time from which 2-DOG uptake was increased: 1 h
[1]; rat adipocytes, 4 h, DHH105 500 μM, glyburide 25 μM, metformin 250 μM, troglitazone 100 μM
  increase of glucose transport vs untreated control at optimum concentration: 4 fold
[1]; rat adipocytes, 4 h treatment
  concentration at which 2-DOG uptake peaked: 500 µM
[1]; rat adipocytes, doses of 500 μM or more
  effect on glucose transport compared with other anti-diabetic drugs: significantly higher effect
GLUT4
  amount of GLUT4 in the microsomal membrane fraction: decreased
  immunoreactive GLUT4 in the plasma membrane fraction: increased
IR-β
  phosphorylation of IR-β: increased
PI3-kinase
  PI3-kinase activity (conversion of PI to PIP3): significantly increased
